This note sets out measurements from US20160175249A1, “Liposomes Containing Oligopeptide Fragments of Myelin Basic Protein, a Pharmaceutical Composition and a Method for Treatment of Multiple Sclerosis” (LIPOXEN TECHNOLOGIES LIMITED, priority 2009, published 2016).

The test system of one test is EAE-induced DA rats. Nature of the test: EAE-induced DA rat model, paralysis score and mortality (DA-EAE-28-01, Example 12). The test is classed as in vivo. The settings on record: daily s.c. injection, 6 total. As to the method: Each of the seven formulations being evaluated was provided as a lyophilized powder and stored at 4° C. Rehydration of each daily group dose was done with water for injection according to Table 6. MBP peptide formulations were re-suspended in water for injection (Cure Medical) and copaxone (Teva LTD) was diluted with Saline to a final concentration of 150 μg/mL. Each subject animal was administered the test formulation for 6 consecutive days by subcutaneous injection.
9 week old Dark Agouti (DA) female rats (Harlan Laboratories, Inc.), weighing between 125 and 145 grams were used as the test subjects. The health status of the animals used in this study was examined on arrival. Only animals in good health were acclimatized to laboratory conditions and were used in the study. Animals were provided Protein Rodent Diet (Teklad) ad libitum and free access to drinking water. Animals were housed in a controlled environment at between 20° C. and 24° C. with a relative humidity of 30-70% and a 12 hr light/12 hr dark cycle. Animals were randomly assigned to their respective test group. This study was performed following the review by the Committee for Ethical Conduct in the Care and Use of Laboratory Animals of the Assaf Harofeh medical center, Beer Yaakov, Ethical Committee number: 68/2009.
For induction of EAE, rats were intradermally injected at the base of the tail with a total volume of 200 μl of inoculum containing 50 μg of MBP(63-81) (ANASPEC), in saline mixed (1:1) with CFA, (IFA, Sigma) and 1 mg Mt (strain H37 RA; Difco Laboratories, Detroit, Mich.).
The rats were evaluated up daily starting 24 hours after immunization. […]
7-10 days post EAE induction, 54 animals were divided to 9 groups (6 rats in each), and blood was collected from 2 rats of each group before the initiation of the treatment. […] The animals were maintained and evaluated until day 28th post EAE-induction. […]
Animals were observed individually and clinical signs were recorded once daily during all study periods. […] The body weight of each animals was determined daily during all study periods. […]

In test [1] the test system is experimental autoimmune encephalomyelitis (EAE) in DA rats. Nature of the test: EAE in DA rats treated with MBP peptides in mannosylated SUV liposomes (Example 10). In kind it is in vivo. The procedure: All animal studies were carried out in animal facilities of Assaf Harofeh Medical Center (Zerifin, Israel) using standard approved practices for animal care. Induction of EAE was performed in 8-9 weeks Dark Agouti (DA) female rats. Briefly, rats were injected intradermally at the base of the tail with a total volume of 200 μl of inoculum, containing […] of MBP(63-81) (ANASPEC), in saline mixed (1:1) with CFA, (incomplete Freund's adjuvant (IFA), Sigma), and 1 mg MT (strain H37 RA; Difco Laboratories, Detroit, Mich.). Animals developing symptoms of MS were included to the study. Rats were treated with different liposomes formulations (Table 3), copaxone, or placebo (vehicle) under similar conditions for 6 days. All formulations were administrated by one subcutaneous injection per day. Animals were followed up till day 28th post EAE induction. Clinical signs score was performed daily during all study periods. Score gradation was the following: 0—Normal 1—tail weakness, 2—hind leg weakness or paralysis, 3—hind leg paralysis, dragging hind limbs, 4—complete paralysis, unable to move, 5—death.
Liposomes were assembled from a mixture of egg phosphatidylcholine (PC) and one molar percent mannosylated DOG (ManDOG) (Durova OM, supra). Assembly of SUV liposomes was performed as illustrated in FIG. 3: (i) formation of irregular lipid layers during evaporation of organic solvent, followed by re-hydration leading to the multi-layer multilamellar vesicle (MLV) liposomes formation; (ii) high-pressure homogenization resulting in formation of empty SUV; (iii) freeze drying of SUV liposomes with peptides—at this stage peptides are located between collapsed SUV liposomes; and (iv) encapsulation of peptides during second re-hydration into the SUV liposomes with an average diameter of approximately 60-100 nm, containing 1.0% mannose residues on their surface. Four formulations were used for this study: each B cell epitope MBP peptide (MBP1, MBP2, and MBP3) individually and a 1:1:1 mixture (by mass) of all three peptides.
Small unilamellar vesicles (SUV) were prepared from egg phosphatidylcholine (PC) and mannosylated DOG (Espuelas S. et al., Synthesis of an amphiphilic tetraantennary mannosyl conjugate and incorporation into liposome carriers, 2003 Bioorg Med Chem Lett., August 4; 13(15):2557-60, the contents of which are hereby incorporated by reference in their entirety for all purposes) (1:100 molar ratio) by high pressure homogenization (Durova OM, supra). Briefly, lipid mixture (100 mg/ml) in CHCl3 was dried under vacuum, further re-suspended in Milli-Q water to a final lipid concentration 50 mg/ml, followed by high-pressure homogenization (20,000 psi). Resulting SUV were mixed with peptides (lipid to peptide ratio 330:1) together with excess sugar (lactose to lipid ratio 3:1) with subsequent freeze-drying. Following rehydration under controlled conditions, the resulting SUV liposomes were washed by centrifugation to remove non-incorporated materials. The washed pellets were re-suspended in PBS to the required dose volume. Peptide incorporation was estimated on the basis of reversed-phase HPLC using linear gradient of acetonitrile applied on C18 column. The z-average diameter and zeta potential of liposomes were measured on a Brookhaven ZetaPlus zetasizer at 25° C. by diluting […] of the dispersion to the required volume with 1 mM PBS or appropriate media.
To test the therapeutic potential of the four formulations, DA rates presenting with induced EAE were subcutaneously injected with one of the four mannosylated liposomal formulations, copaxone (positive control), free (un-encapsulated) MBPI peptide (negative control), and empty mannosylated liposomes (vehicle control; Table 3).
Treatment of each rat was initiated at the first sign of EAE clinical manifestation. […]

Test [2] addresses polyclonal serum anti-MBP antibodies isolated from immunized DA rats. The test is described as follows: Surface plasmon resonance of autoAb binding to biotinylated MBP peptides and MBP. As to conditions: SPR, BiaCore T-200, antibodies 50 μg/ml, immobilized peptide or MBP; for Kd: read-out: effective dissociation constant. The procedure: To quantify autoAb recognition of the identified MBP epitopes, and to confirm their sequence in vitro, the affinity of polyclonal serum anti-MBP antibodies isolated from immunized DA rats for biotinylated MBP peptides was determined by surface plasmon resonance (FIG. 2B). The effective dissociation constant of the full-length MBP protein (1.5×10^−8) was determined to be nanomolar, as were the dissociation constants for MBP encephalitogenic (9.6×10^−9) and C-terminal (8.4×10^−9) fragments, verifying their identity as major B cell epitopes.
All surface plasmon resonance measurements were performed on BiaCore T-200 apparatus (GE Healthcare, US). Biotinylated MBP peptides (50 μg/ml) (listed on FIG. 2) and MBP were immobilized on SA and CM-5 chips respectively. All procedures were performed according manufacture's recommendations. Flow rate of HBS-EP buffer was kept as 10 μl/min during all measurements. Antibodies (50 μg/ml) were tested on both chips with standard association/dissociation time 300/300 s. Dissociation constants were calculated using BiaCore T-200 Evaluation Software 1.0.

Consider “GGDRGAPKRGSGKDSHH (MBP peptide) [MBP1, myelin basic protein fragment MBP(46-62), free un-encapsulated peptide]”, for which, in the test on EAE-induced DA rats (54 EAE induced DA rats, peptide dose 50 μg (mixtures 150 μg), deaths/N), the “Mortality Rate” value is 1/6. The “efficacy, overall disease score” value in the test with EAE-induced DA rats (comparison between groups) is listed as “comparable”. In test [1] (6 daily s.c. injections from first clinical sign), the “mean disease score course (FIG. 4)” value is on record as “did not provide any beneficial effects”. The Mortality in test [1] (one s.c. injection per day, 6 injections, deaths/N) is on record as 1/15. In test [1] (one s.c. injection per day, 6 injections, doses per Table 3), the “Median Cumulative Disease Score” value was 19.5. Also, the “Median Maximal Disease Score (IQR)” value in test [1] (one s.c. injection per day, 6 injections, doses per Table 3, score 0-5) was 3 (0.5)^2.

For “IFKLGGRDSRSGSPMARR [C-terminal fragment]”, the Kd in test [2] worked out at 8.4 nM.

For “MDHARHGFLPRH [biotinylated MBP fragment]”, the effective dissociation constant result in test [2] is listed as “not detectable”.

On to “QDENPVVHFFKNIV [MBP encephalitogenic fragment]”, for which the Kd in test [2] was found to be 9.6 nM.

B1: full-length MBP protein: myelin basic protein, 18.5 kDa, 171 amino acids (protein)
chain: MASQKRPSQRHGSKYLATASTMDHARHGFLPRHRDTGILDSIGRFFGGDRGAPKRGSGKDSHHPARTAHYGSLPQKSHGRTQDENPVVHFFKNIVTPRTPPPSQGKGRGLSLSRFSWGAEGQRPGFGYGGRASDYKSAHKGFKGVDAQGTLSKIFKLGGRDSRSGSPMARR
modifications: MBP splice isoforms
notes: myelin basic protein, 18.5 kDa, 171 amino acids
On to B1, for which the Kd in test [2] came to 15 nM.
